Results: patent US7291630B2, “Azaindoles as inhibitors of c-Jun N-terminal kinases” (Eisai Co., Ltd., priority 2002, dated 2007)

Target: JNK3 kinase (Homo sapiens, UniProt P53779)
Assay: JNK3 SPA assay (phosphorylation of GST-c-Jun)
Format: biochemical
Details: 3.33 μM ATP, GST-c-Jun substrate, 30 minutes at room temperature
Experimental: JNK1, JNK2, JNK3—SPA Assay
A typical assay for testing the activity of compounds to inhibit JNK1, JNK2 and JNK3 enzymes is as follows: • 1. Compound is dissolved in DMSO to a convenient concentration and this is diluted in 10% DMSO to a five times concentrate of the desired starting concentration (frequently 1:100). • 2. 10 μl of 500 mM EDTA is added to alternative wells of the Opti-plate row, which will receive kinase reaction plus DMSO. This creates the negative control. • 3. For the JNK2 and JNK3 assay, compounds are prepared in six 2-fold dilutions with water and each concentration is tested in duplicate. For the JNK1 assay compounds are prepared in four 5-fold dilutions with water which are tested in triplicate. Controls are treated identically. • 4. 20 μl per well of each compound concentration is transferred to an Opti-plate, in duplicate. • 5. 30 μl (JNK2/3 SPA) or 50 μl (JNK1 SPA) of substrate solution (25 mM HEPES pH 7.5, 10 mM magnesium acetate with 3.33 μM ATP (JNK2/3) or 2 μM ATP (JNK1), approximately 7.5 kBq [γ-33P] ATP, GST-c-Jun, in water) is added to each well. • 6. 50 μl (JNK2/3 SPA) or 30 μl (JNK1 SPA) of kinase solution (JNK in 25 mM HEPES pH 7.5, 10 mM Mg Acetate) is added to each well.
• 7. […] Plates are sealed and incubated for 30 minutes at room temperature, centrifuged for 10 minutes at 2500 g and counted. • 10. […]

Chain of JNK3 kinase (P53779 whole entry): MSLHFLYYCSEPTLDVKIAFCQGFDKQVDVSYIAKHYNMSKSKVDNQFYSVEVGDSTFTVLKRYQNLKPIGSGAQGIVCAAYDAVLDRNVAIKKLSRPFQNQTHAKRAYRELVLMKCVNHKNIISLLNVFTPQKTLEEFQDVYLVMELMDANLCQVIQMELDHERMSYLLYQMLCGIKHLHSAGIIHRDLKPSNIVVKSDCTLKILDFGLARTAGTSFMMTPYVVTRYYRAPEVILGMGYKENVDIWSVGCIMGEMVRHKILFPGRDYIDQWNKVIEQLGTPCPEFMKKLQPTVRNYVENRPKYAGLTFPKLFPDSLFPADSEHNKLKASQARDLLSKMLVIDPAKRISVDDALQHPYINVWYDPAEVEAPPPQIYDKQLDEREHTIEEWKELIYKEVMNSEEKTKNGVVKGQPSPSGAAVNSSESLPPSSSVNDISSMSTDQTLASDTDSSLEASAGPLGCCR

Compound	IC50
CN(C)c1ccc(-c2cnc3[nH]ccc3c2)cc1 [Compound 1]	1200 nM
c1csc(-c2cnc3[nH]ccc3c2)c1 [Compound 2]	< 500 nM
